Patent publication US5393777A, “Deferration using anguibactin siderophore” (State of Oregon Acting by and through the State Board of …, priority 1990, dated 1995)
Entries after “also recorded” stand apart in the source; their conditions may differ. Read-outs that look alike come from different tables or passages of the source.

Columns and labels:
[1] = as known in the art; cited from earlier work
[2] = tested on: human diploid fibroblast cells; assay: inhibition of 59Fe uptake by normal human diploid fibroblast cells (FIG. 3); format: cell-based; conditions: 59Fe-containing cell-growth medium
Method: An experiment was conducted to characterize the chelation properties of anguibactin by examining its effect on iron uptake by mammalian cells in culture.
Normal human diploid fibroblast cells were mixed with ^59 Fe-containingcell-growth medium. Samples of the dosed cells were then incubated for increasing lengths of time. After each time period, the corresponding samples were rinsed to remove any free radioiron. The rinsed cells were treated with trypsin and the lysates precipitated with trichloroacetic acid. Radioactive counting of the precipitated lysates was performed using a Beckman counter. Addition of anguibactin and subsequent assay for radioiron in otherwise identical parallel samples yielded a measure of the capacity of the siderophore present in the cell-growth medium to interrupt the uptake of radioiron by the cultured cells.

[3] = removal of ferric iron from aqueous solutions
[4] = tested on: iron-binding proteins in the fish host; assay: removal of iron from iron-binding proteins in the fish host; conditions: in vivo
rat heart cells = assay: inhibition of iron uptake by rat heart cells; format: cell-based; conditions: non-immortalized cells, data not shown
toxicity, general = conditions: preliminary studies
[5] = ferric iron (Fe3+) binding / affinity / formation constant
Excerpt: Each molecule of anguibactin chelates one ferric (Fe^3+ or Fe(III)) ion. Anguibactin also binds Ga(III).

[6] = stability to acid hydrolysis; format: physicochemical
Ga(III) binding = conditions: anguibactin
Method: The structure of anguibactin was determined as outlined in Jalal et al., J. Am. Chem. Soc. 111:292 (1989), and shown schematically in FIG. 2. Anguibactin has a molecular weight of 348 g/mol, which is about half the molecular weight of deferoxamine (657 g/mol). Anguibactin can be regarded as a form of catechol rather than a monophenol. It has a unique structure which bears some resemblance to pyochelin. See Llinas et al., Biochemistry 12:3836 (1973). Anguibactin has been identified as ω-N-hydroxy-ω-[[2'-(2'',3''-dihydroxyphenyl)thiazolin-4'-yl]-carboxy]histamine by crystal X-ray diffraction studies of its anhydro derivative, proton and ^13 C nuclear magnetic resonance spectroscopy of its deferri and Ga(III) complex, fast-atom bombardment (FAB) mass spectrometry, and chemical degradation.

[7] = removal of ferric ion from ferric hydroxide; format: binding; conditions: aqueous, pH between 7 and 8
transferrin [8] = assay: removal of Fe3+ from transferrin; conditions: anguibactin; competitive binding assays
[9] = excretion of radioiron (59Fe) in urine and feces; format: in vivo, rats; conditions: about 10 mg incubated with 59FeCl3, subcutaneous, urine and feces over a week
Method: To determine the ability to excrete chelated iron, a procedure similar to that generally used to evaluate iron chelators is employed. Trace amounts of ^59 FeCl3 are incubated in vitro with about 10 mg anguibactin and subcutaneously injected into normal subjects such as rats. Cumulative excretion of radioiron is measured during the subsequent week in urine and feces. Weak iron chelators are not able enhance ^59 Fe excretion relative to a control injected with ^59 FeCl3 only. […] Evaluation of the distribution of radioiron in urine and stool provides an indication of whether the siderophore-bound iron is removed from plasma by kidneys (urine) or by the liver followed by excretion to the bile (stool).

[10] = competitive binding assay, removal of Fe3+ from aerobactin; conditions: competitive binding assays
Vibrio anguillarum = assay: experimental infection of salmonid fishes, iron supply by siderophore for growth of avirulent strain; format: in vivo; conditions: fish infected with wild-type V. anguillarum
Excerpt: A mutant strain of Vibrio anguillarum termed 775:Tn1-5 was produced which contained the pJM1-derivative plasmid pJHC-91 in which a transposon element Tn1 was inserted into genetic unit I. This mutant strain can grow in vitro in iron-limited media only if the supernatant from strains containing the wild-type pJM1 plasmid, and thus plenty of anguibactin, is supplied. Therefore, strains harboring the pJHC-91 plasmid must be able to transport and incorporate iron from anguibactin but are not able to produce this anguibactin itself. Strains containing the pJHC-91 plasmid are able to synthesize the pOM2 outer membrane protein.

calcium (Ca2+) affinity = format: binding; conditions: anguibactin
[11] = toxicity on injection into rabbits; format: in vivo, rabbit; conditions: injection of 400 μl
Excerpt: (§1) Preliminary studies indicate that anguibactin toxicity is very low.

[12] = toxicity on injection into fish; format: in vivo; conditions: injection of 400 μl anguibactin
Excerpt: as §1

ferrous (Fe2+) affinity = format: binding
[13] = deferoxamine; cited from earlier work
hemoglobin = conditions: cited from earlier work
ferritin = conditions: cited from earlier work
[14] = deferoxamine; cited from earlier work; remark: listed apart in the source
hemosiderin = conditions: cited from earlier work
[15] = cited from earlier work
[16] = human, in vivo; cited from earlier work
[17] = in vivo; cited from earlier work
[18] = cited from earlier work; remark: listed apart in the source
[19] = theoretical; cited from earlier work
transferrin [20] = conditions: deferoxamine; cited from earlier work
cytochromes = conditions: cited from earlier work
Yersinia enterocolitica = conditions: in some cases; cited from earlier work

Compound: O=C(O)CN(CCN(CC(=O)O)CC(=O)O)CC(=O)O [EDTA]
- toxicity of calcium chelators [1]: relatively toxic

Compound: O=C(C1CSC(c2cccc(O)c2O)=N1)N(O)CCc1c[nH]cn1 (centres unmarked) [anguibactin, ω-N-hydroxy-ω-[[2'-(2'',3''-dihydroxyphenyl)thiazolin-4'-yl]-carboxy]histamine]
- solubility in methanol (solubility; methanol): freely soluble in water and methanol
- solubility in water (solubility): highly soluble in water
- solubility in water (solubility; listed as Anguibactin): freely soluble in water
- inhibition of iron uptake by human fibroblast cells [2]: inhibits uptake, from a liquid medium, of iron by cultured human diploid fibroblast cells; also recorded: interrupts the flow of iron into human cells
- inhibition of iron uptake by human fibroblast cells ([2]; listed as Anguibactin): inhibits iron uptake by living cells
- removal of iron from aqueous solution [3]: capable of removing ferric iron from aqueous solutions, including cell-culture medium; also recorded: very efficient in removing iron from aqueous solution
- removal of iron from transferrin and other iron-binding proteins in the fish host [4]: very efficient in removing iron from aqueous solution as well as from transferrin and from other iron-binding proteins in the fish host
- inhibition of iron uptake by rat heart cells (rat heart cells): substantially the same results
- inhibition of iron uptake by rat heart cells (rat heart cells; listed as Anguibactin): inhibits iron uptake by living cells
- toxicity (toxicity, general): very low
- toxicity (toxicity, general; listed as Anguibactin): very low toxicity
- affinity for ferric ions [5]: extremely high
- dependence of Fe3+ binding on pH [5]: dependent on pH
- ferric (Fe3+) ions chelated per molecule [5]: one
- iron chelating power compared with deferoxamine ([5]; from competitive binding data): more powerful iron chelator than the widely used deferoxamine
- Fe3+ binding in mildly alkaline conditions ([5]; mildly alkaline conditions): excellent binding can be achieved
- cleavage by hydrochloric acid ([6]; 6N hydrochloric acid): cleave anguibactin to 2,3-dihydroxybenzoic acid, dehydrocystine, and histamine
- acid hydrolysis below pH 3 ([6]; environment more acidic than pH 3): undergoes acid hydrolysis to at least a partial degree
- pH down to which the molecule remains intact ([6]; pH): ≥ 3
- binding of Ga(III) (Ga(III) binding): binds Ga(III)
- removal of ferric ion from ferric hydroxide [7]: remove ferric ion from ferric hydroxide
- binding of metals other than iron known to be essential for bacterial metabolism (binding of other metals): does not bind any metal other than iron known to be essential for bacterial metabolism
- removal of Fe3+ from transferrin (transferrin [8]): able to remove Fe^3+
- excretion of radioiron [9]: enhance excretion of radioiron
- removal of Fe3+ from other siderophores such as aerobactin [10]: able to remove Fe^3+ from other siderophores such as aerobactin
- level of siderophore in blood and kidneys of infected fish (Vibrio anguillarum): sufficient to provide iron for considerable growth of the avirulent strain
- affinity for Ca2+ ions (calcium (Ca2+) affinity): only a very weak affinity
- adverse effect, rabbits [11]: no discernable adverse effect
- adverse effect, fish [12]: no discernable adverse effect
- affinity for ferrous (Fe2+) ions (ferrous (Fe2+) affinity): only a very weak affinity; also recorded: little affinity

Compound: CC(=O)N(O)CCCCCNC(=O)CCC(=O)N(O)CCCCCNC(=O)CCC(=O)N(O)CCCCCN [deferoxamine]
- acid hydrolysis [13]: prone to acid hydrolysis
- removal of iron from hemoglobin (hemoglobin): substantially not at all from cytochromes and hemoglobin
- removal of iron from ferritin (ferritin): wrests iron from ferritin
- excretion of radioiron [14]: enhance excretion of radioiron
- removal of iron from hemosiderin (hemosiderin): wrests iron from ferritin and hemosiderin
- Intravenous LD50, rats [15]: 329 mg/kg
- toxic reactions [16]: toxic and can cause a number of reactions, including allergic reactions: pruritis, wheals, rash, and anaphylaxis; and dysuria, gastrointestinal symptoms, diarrhea, fever, leg cramps, hypotension, and tachycardia
- absorption after oral administration [17]: poorly absorbed after oral administration
- Intravenous LD50, mice [18]: 287 mg/kg
- capacity of binding ferric iron [19]: about 8.5 parts by weight
- removal of iron from transferrin (transferrin [20]): not readily from transferrin
- removal of iron from cytochromes (cytochromes): substantially not at all from cytochromes
- effect on susceptibility of iron-overload patients to Yersinia enterocolitica infections (Yersinia enterocolitica): enhanced this susceptibility, resulting in generalized infections
